Reference: patent publication US12668600B2 (Kumquat Biosciences Inc., priority 2023, dated 2026)

How the values were obtained:
Format in all cases: biochemical
KRAS G12V = target: T1, KRAS G12V (Homo sapiens, UniProt P01116, G12V); assay: HTRF KRAS-SOS1 interaction assay, KRAS G12V; details: binned ≤2 μM / >2 μM, read-out: Inhibition of KRAS G12V (IC50)
T1 construct: made in house; host or cells: E. coli, e.g. BL21 (DE3)
Source text: (§1) This assay can be also used to assess a selective inhibition or reduction of signaling output of a mutant Ras protein relative to a wildtype, or relative to a different mutant Ras protein. For example, the equilibrium interaction of wildtype KRAS or K-Ras mutant (e.g., wildtype or a mutant thereof) with SOS1 (e.g., hSOS1) can be assessed as a proxy or an indication for the ability of a subject compound to bind and inhibit Ras protein. The HTRF assay detects from (i) a fluorescence resonance energy transfer (FRET) donor (e.g., antiGST-Europium) that is bound to GST-tagged K-Ras mutant to (ii) a FRET acceptor (e.g., anti-6His-XL665) bound to a His-tagged hSOS1.
(§2) The assay buffer can contain ˜5 mM HEPES pH 7.4, ˜150 mM NaCl, ˜1 mM DTT, 0.05% BSA and 0.0025% (v/v) Igepal. A Ras working solution is prepared in an assay buffer containing typically a suitable amount of the protein construct (e.g., GST-tagged K-Ras mutant) and the FRET donor (e.g., antiGST-Eu (K) from Cisbio, France). A SOS1 working solution is prepared in an assay buffer containing suitable amount of the protein construct (e.g., His-hSOS1) and the FRET acceptor (e.g., anti-6His-XL665 from Cisbio, France). A suitable amount of the protein construct will depend on the range of activity or range of IC50 values being detected or under investigation. For detecting an IC50 within a range of 500 nM, the protein constructs of the same range of molarity can be utilized.
(§3) A fixed volume of DMSO with or without test compound is transferred into a 384-well plate. Ras working solution is added to all wells of the test plate. SOS1 working solution is added to all wells except for those that are subsequently filled with inhibitor control solution. Upon incubation for about 10 minutes or longer, the fluorescence is measured with a M1000Pro plate reader (Tecan) using HTRF detection (excitation 337 nm, emission 1:620 nm, emission 2:665 nm). Compounds are tested in duplicate at different concentrations (for example, 10 μM, 2.5 μM, 0.63 μM, 0.16 μM, 0.04 μM, 0.01 μM test compound). The ratiometric data (i.e., emission 2 divided by emission 1) is used to calculate IC50 values against Ras using GraphPad Prism (GraphPad software). Signaling output measured in terms of IC50 values can be obtained and a ratio of IC50 against one mutant relative to another mutant can be calculated.

KRAS G12S = target: T2, KRAS G12S (Homo sapiens, UniProt P01116, G12S); assay: HTRF KRAS-SOS1 interaction assay, KRAS G12S; details: binned ≤2 μM / >2 μM, read-out: Inhibition of KRAS G12S (IC50)
T2 construct: made in house; host or cells: E. coli, e.g. BL21 (DE3)
T2 sequence (P01116 1-188 isoform P01116-2 G12S): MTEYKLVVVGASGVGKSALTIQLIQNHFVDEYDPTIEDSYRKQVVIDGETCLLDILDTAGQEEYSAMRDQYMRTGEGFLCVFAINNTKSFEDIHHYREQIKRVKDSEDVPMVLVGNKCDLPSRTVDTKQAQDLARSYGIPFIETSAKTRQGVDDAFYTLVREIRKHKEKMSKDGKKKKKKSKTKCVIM
Source text: as §1, §2, §3

KRAS WT = target: T3, KRAS WT (Homo sapiens, UniProt P01116); assay: HTRF KRAS-SOS1 interaction assay, wildtype KRAS; details: binned ≤2 μM / >2 μM, read-out: Inhibition of KRAS WT (IC50)
T3 construct: made in house; host or cells: E. coli, e.g. BL21 (DE3)
T3 sequence (P01116 1-188 isoform P01116-2): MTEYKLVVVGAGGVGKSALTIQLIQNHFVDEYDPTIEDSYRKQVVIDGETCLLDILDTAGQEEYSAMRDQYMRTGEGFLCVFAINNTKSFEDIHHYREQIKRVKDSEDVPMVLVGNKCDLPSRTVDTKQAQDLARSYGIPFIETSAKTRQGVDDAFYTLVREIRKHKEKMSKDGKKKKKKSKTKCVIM
Source text: as §1, §2, §3

KRAS G12D = target: T4, KRAS G12D (Homo sapiens, UniProt P01116, G12D); assay: HTRF KRAS-SOS1 interaction assay, KRAS G12D; details: binned ≤2 μM / >2 μM, read-out: Inhibition of KRAS G12D (IC50)
T4 construct: made in house; host or cells: E. coli, e.g. BL21 (DE3)
T4 sequence (P01116 1-188 isoform P01116-2 G12D): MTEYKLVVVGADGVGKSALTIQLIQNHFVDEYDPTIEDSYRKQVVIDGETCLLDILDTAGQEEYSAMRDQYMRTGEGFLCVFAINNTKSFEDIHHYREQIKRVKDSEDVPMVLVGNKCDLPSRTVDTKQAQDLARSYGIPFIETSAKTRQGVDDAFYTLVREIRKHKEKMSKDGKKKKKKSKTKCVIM
Source text: as §1, §2, §3

T1 sequence (P01116 1-188 isoform P01116-2 G12V): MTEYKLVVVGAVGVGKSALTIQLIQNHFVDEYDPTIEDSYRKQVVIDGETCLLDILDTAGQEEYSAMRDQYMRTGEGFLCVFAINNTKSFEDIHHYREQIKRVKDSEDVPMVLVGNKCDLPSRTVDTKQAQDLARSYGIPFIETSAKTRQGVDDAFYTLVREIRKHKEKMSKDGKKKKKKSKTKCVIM

SMILES	IC50 (KRAS G12V) [nM]	IC50 (KRAS G12S) [nM]	IC50 (KRAS WT) [nM]	IC50 (KRAS G12D) [nM]
N#Cc1c(N)sc2c(F)ccc(-c3c(Cl)c4c5c(nc(OC[C@@]67CCCN6C[C@H](F)C7)nc5c3F)N(C(c3cccnc3N)C(F)F)CCO4)c12 (single isomer, unassigned) [Compound 618]	≤ 2000	≤ 2000	≤ 2000	–
N#Cc1c(N)sc2c(F)ccc(-c3c(C(F)(F)F)c4c5c(nc(OC[C@@]67CCCN6C[C@H](F)C7)nc5c3F)N([C@H](CCC3COCCO3)c3cccnc3N)CCO4)c12 (single isomer, unassigned) [Compound 624]	≤ 2000	≤ 2000	≤ 2000	–
CCC(c1cccnc1N)N1CCOc2c(Cl)c(-c3ccc(F)c4sc(N)c(C#N)c34)c(F)c3nc(OC[C@@]45CCCN4C[C@H](F)C5)nc1c23 (mixture of isomers) [Compound 643, 2-amino-4-(4-(1-(2-aminopyridin-3-yl)propyl)-8-chloro-10-fluoro-2-(((2R,7aS)-2-fluorotetrahydro-1H-pyrrolizin-7a(5H)-yl)methoxy)-5,6-dihydro-4H-[1,4]oxazepino[5,6,7-de]quinazolin-9-yl)-7-fluorobenzo[b]thiophene-3-carbonitrile]	≤ 2000	≤ 2000	≤ 2000	–
C[C@H](c1cccnc1N)N1CCOc2c(C(F)(F)F)c(-c3ccc(F)c4sc(N)c(C#N)c34)c(F)c3nc(OC[C@@]45CCCN4C[C@H](F)C5)nc1c23 (single isomer, unassigned) [Compound 768]	–	≤ 2000	–	–
CP(C)(=O)CC[C@H](c1cccnc1N)N1CCOc2c(C(F)(F)F)c(-c3ccc(F)c4sc(N)c(C#N)c34)c(F)c3nc(OC[C@@]45CCCN4C[C@H](F)C5)nc1c23 (single isomer, unassigned) [Compound 671]	≤ 2000	≤ 2000	≤ 2000	–
C[C@H](c1cccnc1N)N1CCOc2c(C(F)(F)F)c(-c3cccc4sc(N)c(C#N)c34)c(F)c3nc(OC[C@@]45CCCN4C[C@H](F)C5)nc1c23 (single isomer, unassigned) [Compound 678]	≤ 2000	≤ 2000	≤ 2000	–
CC(c1cncnc1N)N1CCOc2c(Cl)c(-c3ccc(F)c4sc(N)c(C#N)c34)c(F)c3nc(OC[C@@]45CCCN4C[C@H](F)C5)nc1c23 (single isomer, unassigned) [Compound 646]	≤ 2000	≤ 2000	≤ 2000	–
CCO/N=C1\CN2CCC[C@@]2(COc2nc3c4c(c(Cl)c(-c5ccc(F)c6sc(N)c(C#N)c56)c(F)c4n2)OCCN3[C@H](C)c2cccnc2N)C1 (single isomer, unassigned) [Compound 627]	≤ 2000	≤ 2000	≤ 2000	–
C[C@H](c1cccnc1N)N1CCOc2c(C(F)(F)F)c(-c3ccc(F)c4sc(N)c(C#N)c34)c(F)c3nc(OC[C@@]45CCCN4C[C@H](F)C5)nc1c23 (single isomer, unassigned) [Compound 757]	≤ 2000	–	≤ 2000	≤ 2000
N#Cc1c(N)sc2c(F)ccc(-c3c(Cl)c4c5c(nc(OC[C@@]67CCCN6C[C@H](F)C7)nc5c3F)N(C(CC(F)F)c3cccnc3N)CCO4)c12 (mixture of isomers) [Compound 681, 2-amino-4-(4-(1-(2-aminopyridin-3-yl)-3,3-difluoropropyl)-8-chloro-10-fluoro-2-(((2R,7aS)-2-fluorotetrahydro-1H-pyrrolizin-7a(5H)-yl)methoxy)-5,6-dihydro-4H-[1,4]oxazepino[5,6,7-de]quinazolin-9-yl)-7-fluorobenzo[b]thiophene-3-carbonitrile]	≤ 2000	≤ 2000	≤ 2000	–
N#Cc1c(N)sc2c(F)ccc(-c3c(C(F)(F)F)c4c5c(nc(OC[C@@]67CCCN6C[C@H](F)C7)nc5c3F)N([C@H](CC3CCOC3)c3cccnc3N)CCO4)c12 (single isomer, unassigned) [Compound 717]	> 2000	–	> 2000	> 2000
N#Cc1c(N)sc2c(F)ccc(-c3c(C(F)(F)F)c4c5c(nc(OC[C@@]67CCCN6C[C@H](F)C7)nc5c3F)N([C@H](CC3CCOC3)c3cccnc3N)CCO4)c12 (single isomer, unassigned) [Compound 772]	≤ 2000	–	≤ 2000	≤ 2000
N#Cc1c(N)sc2c(F)ccc(-c3c(C(F)(F)F)c4c5c(nc(OC[C@@]67CCCN6C[C@H](F)C7)nc5c3F)N([C@H](CC3CCOC3)c3cccnc3N)CCO4)c12 (single isomer, unassigned) [Compound 911]	≤ 2000	–	≤ 2000	≤ 2000
C=CC[C@H](c1cccnc1N)N1CCOc2c(C(F)(F)F)c(-c3ccc(F)c4sc(N)c(C#N)c34)c(F)c3nc(OC[C@@]45CCCN4C[C@H](F)C5)nc1c23 (single isomer, unassigned) [Compound 734]	> 2000	–	> 2000	≤ 2000
N#Cc1c(N)sc2c(F)ccc(-c3c(C(F)(F)F)c4c5c(nc(OC[C@@]67CCCN6C[C@H](F)C7)nc5c3F)N([C@H](CCC3CCC3)c3cccnc3N)CCO4)c12 (single isomer, unassigned) [Compound 745]	–	–	≤ 2000	≤ 2000
CCO/N=C(\C)CCC[C@H](c1cccnc1N)N1CCOc2c(C(F)(F)F)c(-c3ccc(F)c4sc(N)c(C#N)c34)c(F)c3nc(OC[C@@]45CCCN4C[C@H](F)C5)nc1c23 (single isomer, unassigned) [Compound 859]	> 2000	–	> 2000	> 2000
C[C@H](c1cccnc1N)N1CCOc2c(C(F)(F)F)c(-c3cc(F)c(F)c4sc(N)c(C#N)c34)c(F)c3nc(OC[C@@]45CCCN4C[C@H](F)C5)nc1c23 (single isomer, unassigned) [Compound 863]	–	> 2000	> 2000	> 2000
N#Cc1c(N)sc2c(F)ccc(-c3c(C(F)(F)F)c4c5c(nc(OC[C@@]67CCCN6[C@H](COc6cnc(C(F)(F)F)cn6)CC7)nc5c3F)N([C@@H](c3cccnc3N)C(F)F)CCO4)c12 (single isomer, unassigned) [Compound 882]	≤ 2000	≤ 2000	–	≤ 2000
CCO/N=C(\C)CCC[C@H](c1cccnc1N)N1CCOc2c(C(F)(F)F)c(-c3ccc(F)c4sc(N)c(C#N)c34)c(F)c3nc(OC[C@@]45CCCN4C[C@H](F)C5)nc1c23 (single isomer, unassigned) [Compound 720]	≤ 2000	–	≤ 2000	≤ 2000
N#Cc1c(N)sc2c(F)ccc(-c3c(C(F)(F)F)c4c5c(nc(OC[C@@]67CCCN6[C@H](COc6cnc(C(F)(F)F)cn6)CC7)nc5c3F)N([C@@H](c3cccnc3N)C(F)F)CCO4)c12 (single isomer, unassigned) [Compound 887]	–	–	≤ 2000	–
Cc1cnc(N)c([C@@H](C)N2CCOc3c(C(F)(F)F)c(-c4ccc(F)c5sc(N)c(C#N)c45)c(F)c4nc(OC[C@@]56CCCN5C[C@H](F)C6)nc2c34)c1 (single isomer, unassigned) [Compound 861]	–	> 2000	> 2000	> 2000
N#Cc1c(N)sc2c(F)ccc(-c3c(C(F)(F)F)c4c5c(nc(OC[C@@]67CCCN6C[C@H](F)C7)nc5c3F)N([C@H](CC3CC(F)(F)C3)c3cccnc3N)CCO4)c12 (single isomer, unassigned) [Compound 703]	–	–	–	≤ 2000
CC(c1cncnc1N)N1CCOc2c(Cl)c(-c3ccc(F)c4sc(N)c(C#N)c34)c(F)c3nc(OC[C@@]45CCCN4C[C@H](F)C5)nc1c23 (single isomer, unassigned) [Compound 699]	–	–	–	≤ 2000
CCC(c1cccnc1N)N1CCOc2c(Cl)c(-c3ccc(F)c4sc(N)c(C#N)c34)c(F)c3nc(OC[C@@]45CCCN4C[C@H](F)C5)nc1c23 (mixture of isomers) [Compound 844, 2-amino-4-(4-(1-(2-aminopyridin-3-yl)propyl)-8-chloro-10-fluoro-2-(((2R,7aS)-2-fluorotetrahydro-1H-pyrrolizin-7a(5H)-yl)methoxy)-5,6-dihydro-4H-[1,4]oxazepino[5,6,7-de]quinazolin-9-yl)-7-fluorobenzo[b]thiophene-3-carbonitrile]	–	–	–	≤ 2000
